Experimental data as given in US6982249B1, “Bradykinin analogs as selective inhibitors of cell activation” (The Regents of the University of Michigan, priority 1997, dated 2006).
“Also recorded” adds a separate entry of the source. Like-named read-outs stand apart in the source and are kept apart here. Square brackets hold non-standard residues; d marks the D form. Ends that are not written are not given here.

How the values were obtained:
[1] = tested on: γ-thrombin-induced platelet aggregation; experiment: γ-thrombin-induced platelet aggregation in human platelet-rich plasma; assay type: cell-based; conditions: for inhibition of γ-thrombin-induced platelet aggregation (in words): assay like Example 1A
Protocol: For human platelet aggregation studies, 50 ml human blood was collected into a syringe containing 5 ml of 0.013 M sodium citrate. The anticoagulated blood was centrifuged at 180 xg for 10 minutes at room temperature and the platelet-rich plasma was the supernatant. Platelet aggregation studies in platelet-rich plasma were performed in the cuvette of an aggregometer using γ-thrombin (Haematologic Technologies, Essex Junction, Vt.). After standardization of the aggregometer, the threshold dose of γ-thrombin, defined as the minimal concentration that will induce full platelet aggregation, was ascertained for each preparation of platelet-rich plasma. Typically, the threshold dose of γ-thrombin was between 5 and 30 nM.
Various concentrations of the peptide being tested were added to the platelet-rich plasma in the cuvette of the aggregometer. Platelet aggregation was induced by the addition of γ-thrombin. The degree of platelet aggregation was determined by measuring (in arbitrary units) the increase in light transmission through the stirred suspension of platelet-rich plasma. […]
The peptides synthesized in Example 4 were assayed for the ability to inhibit γ-thrombin-induced platelet aggregation in platelet-rich plasma.

[2] = biological target: T1, NAT12 (thrombin receptor cleavage site) (Homo sapiens, UniProt P25116); experiment: Binding of biotinylated NAT12 to peptides linked to microtiter plates; conditions: peptide linked to microtiter plate
T1 construct: spans amino acids 35-46 of the α-thrombin cleavage site on the thrombin receptor
Protocol: (§1) Peptides from a combinatorial library are linked to microtiter plates and the wells are blocked with 1% BSA. Biotinylated-NAT12 is incubated with the microtiter plates. After washing, the presence of biotin-NAT12 attached to the matrix support expressing peptides is detected by incubation with ImmunoPure streptavidin horseradish peroxidase conjugate (Pierce Chemical Co., Rockville Ill.) followed by peroxidase-specific fast reacting substrate, turbo-3,3′,5,5′-tetramethylbenzidine (turbo-TMB, Pierce Chemical Co., Rockville Ill.). After incubation for 5 min at room temperature, the color reaction of the turbo-TMB is stopped by the addition of 1 M phosphoric acid. The bound peptide is quantified by measuring the absorbance of the reaction mixture at 450 nm using a Microplate auto reader EL311 (BioTek Instrument, Winooski Vt.).
The specific binding of biotinylated NAT12 to BK analogs and other peptides was assayed as described in Example 2A.

[3] = biological target: T2, NAT12 (SEQ ID NO:2), α-thrombin cleavage site on the thrombin receptor (Homo sapiens, UniProt P25116); experiment: α-thrombin cleavage of NAT12 peptide (HPLC); assay type: biochemical; conditions: 1 mM peptide, 8 nM α-thrombin
T2 construct: spans amino acids 35-46 of the α-thrombin cleavage site on the thrombin receptor
Protocol: The peptide NAT12 (SEQ ID NO:2), which spans amino acids 35-46 of the α-thrombin cleavage site on the thrombin receptor (Vu et al., Cell 64, 1057 (1991), was also used to determine whether BK analogs blocked α-thrombin cleavage of the cloned receptor.
The cleavage studies were performed according to the method of Molino et al., J. Biol. Chem. 270, 11168 (1995). Briefly, NAT12 (SEQ ID NO:2) was dissolved in a solution of 0.01 M NaH2PO4 and 0.15 M NaCl, pH 7.4. The mixture was then incubated with 8 nM α-thrombin for one hour at 37° C. either in the absence (control) or presence of 1 mM of a BK analog. Following incubation, the mixture was applied to a Vyadec C-18 HPLC column in 0.1% trifluoroacetic acid and eluted with a gradient from 0% to 100% of 80% MeCN and 0.1% trifluoroacetic acid. The sizes of the separated products were confirmed by mass spectrometry.
NAT12 (SEQ ID NO:2) produced a single peak (peak 1) when analyzed by HPLC. […] The additional peaks, peaks 3 and 2, represent the cleavage products of NAT12.

[4] = Observations of the animals after bolus injection (blood pressure, pulse, platelet count, bleeding); assay type: in vivo, New Zealand white rabbits; conditions: rabbit, i.v. bolus
Protocol: (§2) Clearance studies were performed in New Zealand white rabbits weighing between 2.0 and 2.5 kg. Rabbits were premedicated according to the method of Michelson et al., J. Mol. Cell Cardiol. 20, 547 (1988) with 10 mg/kg 1 M xylazine and 10 mg/kg 1 M ketamine. After tracheostomy, intubation, and positive pressure ventilation done with room air (Harvard instruments), stage III surgical anesthesia was maintained with 20 mg/ml of intravenous pentobarbital. A carotid artery and a jugular vein were then exposed. A catheter was inserted into the exposed carotid artery for withdrawal of blood samples and monitoring the animal's blood pressure (Gould, Inc., Cardiovascular Products, Oxnard. Calif.). In a similar manner, a catheter was inserted into the exposed jugular vein for administering the anesthetic and BK analog.
(§3) A single intravenous infusion of BK analog was injected. The amount of BK analog injected was calculated from the weight of the animal such that the blood concentration was 1 mM peptide. For example: for a 2.5 kg rabbit, 7% of its weight gives an estimated blood volume of 175 ml. Accordingly, 89 mg of the control BK fragment SEQ ID NO:7 was injected (giving a 1 mM concentration in the 175 ml plasma). Depending upon the size of the animal, 75 to 90 mg peptide was injected. Blood samples were collected at 2, 4, 6, 8, 10, 20, 30, 40, 60, 90, and 120 minute intervals after infusion into a 0.013 M sodium citrate anticoagulant solution. Plasma was prepared from each of the blood samples collected over time by centrifugation of the blood samples at 10,000×g for two minutes. Aliquots of the plasmas were assayed for the presence of the BK analog antigen by the ELISA technique using a MARKIT-M [1-5] BK assay from Dainippon Pharmaceutical Co., Ltd., Osaka, Japan.

[5] = In vivo clearance after single intravenous infusion (plasma ELISA); design: species or system New Zealand white rabbits; conditions: rabbit; for half-life: single i.v. infusion
Protocol: as §2, §3

[6] = tested on: fibroblasts (thrombin receptor, PAR 1); experiment: α-thrombin-induced calcium mobilization in fibroblasts; assay type: cell-based
Protocol: A variation of the calcium mobilization assay uses fibroblasts (which express a single receptor for thrombin, PAR 1), umbilical vein endothelial cells, or other cells which express the cloned thrombin receptor, and which grow in monolayers on the bottom of plastic wells.
Fibroblasts or endothelial cells were grown in 24-96 well plates and loaded with the fluorescent Ca^2+ indicator fura-2 acetyloxymethylester (5 μM, Molecular Probes Inc.) by incubation for 60 min. in HEPES-Tyrode's buffer at 37° C. After washing the cells, the fluorescence of the cells was monitored on a thermostatically controlled heated pad at 37° C. for 1 min, then the cells were incubated with α-thrombin (1 to 5 nM) in the absence or presence of a BK analog. Fluorescence was detected by a Perkin-Elmer LS-50B Luminescence Spectrofluorometer. Excitation was measured at 340 and 380 nm wavelength and emission was assessed at 510 nm. The cytosolic Ca^2+ levels were determined as described above. The Rmax value was determined using 10 mM Ca^2+ in the presence of 20 μM Ionophor A23187; Rmin was determined in the presence of 20 mM EDTA.
The ability of BK analogs to inhibit α-thrombin-induced calcium mobilization in fibroblasts and human umbilical vein endothelial cells (HUVEC) was assayed as described in Example 1C.

LNA7 = biological target: T3, LNA7; experiment: microtiter plate assay, plate-linked peptide, biotin-NAT12 detected with streptavidin-HRP
T3 construct: Control peptide
T3 peptide: LNAENNA
Protocol: as §1, with “turbo-3,3',5,5'-tetramethylbenzidine” for “turbo-3,3′,5,5′-tetramethylbenzidine”
(§4) Peptides from a combinatorial library are linked to a microtiter plate and blocked with 1% BSA. Biotinylated-NAT12 is incubated with the microtiter plate. After washing, the presence of biotin-NAT12 attached to the matrix support expressing peptides is detected by incubation with Immu-noPure streptavidin horseradish peroxidase conjugate (Pierce Chemical Co., Rockville Ill.) followed by peroxidase-specific fast reacting substrate, turbo-3,3',5,5'-tetramethylbenzidine (turbo-TMB, Pierce Chemical Co., Rockville Ill.). After incubation for 5 min at room temperature, the color reaction of the turbo-TMB is stopped by the addition of 1 M phosphoric acid. The bound peptide is quantified by measuring the absorbance of the reaction mixture at 450 nm using a Microplate auto reader EL311 (BioTek Instrument, Winooski Vt.). Compounds which bind the NAT12 peptide are also assayed for the ability to inhibit platelet aggregation and the ability to inhibit calcium mobilization, using the assays described in Example 1.

RPPGC = biological target: T4, RPPGC (not fully specified); experiment: as above
T4 peptide: RPPGC
Protocol: as §1, with “turbo-3,3',5,5'-tetramethylbenzidine” for “turbo-3,3′,5,5′-tetramethylbenzidine”
as §4

FSPFR = biological target: T5, FSPFR; experiment: as above
T5 construct: Control peptide
T5 peptide: FSPFR
Protocol: as §1, with “turbo-3,3',5,5'-tetramethylbenzidine” for “turbo-3,3′,5,5′-tetramethylbenzidine”
as §4

NAT12 = biological target: T6, NAT12; experiment: cell-based or functional assay
T6 chain: NATLDPRSFLLR

## Arg-Pro
[1]; human PRP
  inhibition of γ-thrombin-induced platelet aggregation (in words): no inhibitory activity

## Arg-[dP]-Pro
[1]; human PRP
  inhibition of γ-thrombin-induced platelet aggregation (in words): reduced ability

## FSPFR: peptide FSPFR (SEQ ID NO: 10) (bradykinin analog)
[2]
  specific binding of biotinylated NAT12 to the peptide (FIG. 4): not

## LNA7: non-BK analog peptide (SEQ ID NO:8) (LNAENNA; bradykinin analog)
[1]; 1 mM peptide, 20 nM γ-thrombin, human PRP
  inhibition of γ-thrombin-induced platelet aggregation: unable to inhibit
[2]
  specific binding of biotinylated NAT12 to the peptide (FIG. 4): not

## RPPGF [RPPGF, Arg-Pro-Pro-Gly-Phe]
[3]; 1 h 37° C., without peptide 81%
  reduction of NAT12 peak 1 area after α-thrombin treatment: 57%
[3]; without peptide 37%
  NAT12 cleavage product peak 2, share of original peak area: 26%
[3]; without peptide 44%
  NAT12 cleavage product peak 3, share of original peak area: 31%
[4]
  bleeding at the surgical sites of cutdowns and intubations: no abnormal bleeding
  blood pressure, pulse, and platelet count: remained stable
  unfavorable effects following the bolus injection: No unfavorable effects were observed
[5]; New Zealand white, plasma, iv, single i.v. infusion 75 to 90 mg, ELISA, two of three rabbits, read-out: peak plasma concentration after infusion
  Cmax: 60 µg/mL
[5]; New Zealand white, plasma, iv, read-out: half-life of antigen clearance in plasma, first phase
  half-life: 2.8 min
[5]; New Zealand white, plasma, iv, read-out: half-life of antigen clearance in plasma, second phase
  half-life: 20 min
[5]; single i.v. infusion 75 to 90 mg, ELISA, two of three rabbits
  peak plasma concentration after infusion: 0.120 mM

## [dR]-Pro-Pro
[1]; human PRP
  inhibition of γ-thrombin-induced platelet aggregation (in words): reduced ability

## Arg-Pro-Pro-Amide [RPP-Amide]
[1]; human PRP
  inhibition of γ-thrombin-induced platelet aggregation (in words): reduced ability

## RPPGC: peptide RPPGC (SEQ ID NO:9) (bradykinin analog)
[2]
  specific binding of biotinylated NAT12 to the peptide (FIG. 4): specifically bound

## Arg-Pro-Pro-Ala-Phe (RPPAF; bradykinin analog)
[1]; human PRP
  inhibition of γ-thrombin-induced platelet aggregation (in words): showed inhibition

## Arg-Pro-Pro [RPP]
[1]; 50 μM peptide, 27.5 nM γ-thrombin
  γ-thrombin-induced platelet aggregation at 50 μM peptide (FIG. 2): abolish
[1]; 100% inhibition of γ-thrombin-induced aggregation, same conditions
  fold better as an inhibitor than RPPGF: greater than 2.5 fold
[1]; human PRP
  inhibition of γ-thrombin-induced platelet aggregation (in words): showed inhibition
[1]; mean±SD of 3 or 5 experiments, human PRP
  concentration that inhibited γ-thrombin-induced platelet aggregation 100%: 0.089 mM
[6]
  inhibition of α-thrombin-induced calcium mobilization in fibroblasts (FIG. 5): inhibited calcium mobilization; also recorded: inhibition

B1: biotinylated NAT12 (peptide)
peptide: NATLDPRSFLLR
modifications: also: biotinylated (position not given here)
notes: It was in solution in the microtiter plate assay; also called biotin-NAT12
LNA7
  binding result: no binding
RPPGC
  binding result: binds
FSPFR
  binding result: no binding

## RPPGF (modifications not checked) [Arg-Pro-Pro-Gly-Phe (RPPGF)]
NAT12
  cleavage product peak 2, as a share of the original NAT12 peak area, in the presence of 1 mM peptide: 26%
  cleavage product peak 3, as a share of the original NAT12 peak area, in the presence of 1 mM peptide: 31%
  reduction of the NAT12 HPLC peak area (peak 1) after alpha-thrombin in the presence of 1 mM peptide: 57%
